Measurements as given in paper PMC4878759 (PLoS ONE, 2016).

Key:
human wild-type CFTR = molecular target: T1, human wild-type CFTR (Homo sapiens, UniProt P13569); experiment: Apical membrane current in FRT cells expressing CFTR; assay type: cell-based; settings: up to 30 μM, CFTR activated by 20 μM forskolin
T1 construct: expressed in transfected cells; host or cells: Fischer rat thyroid (FRT) cells
Experimental: (§1) Snapwell inserts containing ANO1, ANO2 or CFTR expressing FRT cells, ENaC expressing T-84 cells or the human primary airway epithelial cells were mounted in Ussing chambers (Physiologic Instruments, San Diego, CA). To induce transcriptional ENaC induction, the polarized T84 cells were incubated with 2 mM sodium butyrate for 2 days. To increase the functional expression of ANO1, the human airway epithelial cells were treated with IL-4 (10 ng/mL) for 2 days. For T-84 and the human primary airway epithelial cells, the apical and basolateral bath were filled with HCO3^—buffered solution containing (in mM): 120 NaCl, 5 KCl, 1 MgCl2, 1 CaCl2, 10 D-glucose, 2.5 HEPES, and 25 NaHCO3 (pH 7.4). For FRT cells, the basolateral bath was filled with the HCO3^—buffered solution and the apical bath was filled with a half-Cl^- solution. In the half-Cl^- solution 65 mM NaCl in the HCO3^—buffered solution was replaced by Na-gluconate. […] ATP was applied to the apical bath solution to induce intracellular calcium increase. […] Apical membrane currents were measured with an EVC4000 Multi-Channel V/I Clamp (World Precision Instruments, Sarasota, FL) and PowerLab 4/35 (AD Instruments, Castle Hill, Australia). Data were analyzed using Labchart Pro 7 (AD Instruments). The sampling rate was 4 Hz.
(§2) ANO1 was activated by either 10 μM Eact, an ANO1 activator, or 100 μM ATP.

ENaC = molecular target: T2, ENaC (Homo sapiens, UniProt P37088+P51168+P51170); experiment: Short circuit current in T84 cells expressing ENaC; assay type: cell-based; settings: up to 30 μM
T2 construct: endogenous in cells; host or cells: T84 cells, ENaC induced with 2 mM sodium butyrate for 2 days
T2 sequence (P37088 1-669): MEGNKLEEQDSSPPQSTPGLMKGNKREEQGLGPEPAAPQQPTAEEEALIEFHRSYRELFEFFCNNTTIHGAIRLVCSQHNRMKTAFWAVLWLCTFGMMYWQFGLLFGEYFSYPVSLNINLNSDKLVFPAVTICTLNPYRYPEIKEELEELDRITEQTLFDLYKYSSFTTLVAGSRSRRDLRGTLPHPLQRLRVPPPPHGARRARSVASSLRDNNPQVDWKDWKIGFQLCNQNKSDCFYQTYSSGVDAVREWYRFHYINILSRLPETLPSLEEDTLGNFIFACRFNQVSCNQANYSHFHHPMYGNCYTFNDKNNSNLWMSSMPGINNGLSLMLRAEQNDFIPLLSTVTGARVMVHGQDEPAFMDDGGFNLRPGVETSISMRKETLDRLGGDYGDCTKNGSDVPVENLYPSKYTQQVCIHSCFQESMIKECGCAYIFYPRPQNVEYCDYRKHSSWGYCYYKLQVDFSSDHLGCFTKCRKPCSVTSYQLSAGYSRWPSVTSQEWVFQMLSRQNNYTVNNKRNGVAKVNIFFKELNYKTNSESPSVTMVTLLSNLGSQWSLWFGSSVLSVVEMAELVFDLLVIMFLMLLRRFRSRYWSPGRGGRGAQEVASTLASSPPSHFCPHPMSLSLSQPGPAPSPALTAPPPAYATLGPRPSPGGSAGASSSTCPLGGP
T2 sequence (P51168 1-640): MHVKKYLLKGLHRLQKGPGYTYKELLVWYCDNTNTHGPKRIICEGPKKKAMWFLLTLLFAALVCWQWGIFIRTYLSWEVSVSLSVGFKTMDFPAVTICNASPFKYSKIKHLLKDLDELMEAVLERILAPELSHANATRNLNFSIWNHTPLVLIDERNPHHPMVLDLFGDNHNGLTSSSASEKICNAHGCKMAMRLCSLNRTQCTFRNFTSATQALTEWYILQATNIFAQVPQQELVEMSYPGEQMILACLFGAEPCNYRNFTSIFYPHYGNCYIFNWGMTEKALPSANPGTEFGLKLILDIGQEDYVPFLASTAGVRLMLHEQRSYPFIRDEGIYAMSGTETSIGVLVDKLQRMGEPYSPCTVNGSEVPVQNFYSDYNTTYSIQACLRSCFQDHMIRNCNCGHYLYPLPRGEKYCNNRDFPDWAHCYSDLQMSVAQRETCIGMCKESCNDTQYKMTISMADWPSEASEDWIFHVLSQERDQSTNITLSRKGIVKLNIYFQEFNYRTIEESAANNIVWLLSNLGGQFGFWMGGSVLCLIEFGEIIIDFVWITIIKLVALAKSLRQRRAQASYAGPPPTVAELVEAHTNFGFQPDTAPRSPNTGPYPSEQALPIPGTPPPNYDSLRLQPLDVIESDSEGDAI
T2 sequence (P51170 1-649): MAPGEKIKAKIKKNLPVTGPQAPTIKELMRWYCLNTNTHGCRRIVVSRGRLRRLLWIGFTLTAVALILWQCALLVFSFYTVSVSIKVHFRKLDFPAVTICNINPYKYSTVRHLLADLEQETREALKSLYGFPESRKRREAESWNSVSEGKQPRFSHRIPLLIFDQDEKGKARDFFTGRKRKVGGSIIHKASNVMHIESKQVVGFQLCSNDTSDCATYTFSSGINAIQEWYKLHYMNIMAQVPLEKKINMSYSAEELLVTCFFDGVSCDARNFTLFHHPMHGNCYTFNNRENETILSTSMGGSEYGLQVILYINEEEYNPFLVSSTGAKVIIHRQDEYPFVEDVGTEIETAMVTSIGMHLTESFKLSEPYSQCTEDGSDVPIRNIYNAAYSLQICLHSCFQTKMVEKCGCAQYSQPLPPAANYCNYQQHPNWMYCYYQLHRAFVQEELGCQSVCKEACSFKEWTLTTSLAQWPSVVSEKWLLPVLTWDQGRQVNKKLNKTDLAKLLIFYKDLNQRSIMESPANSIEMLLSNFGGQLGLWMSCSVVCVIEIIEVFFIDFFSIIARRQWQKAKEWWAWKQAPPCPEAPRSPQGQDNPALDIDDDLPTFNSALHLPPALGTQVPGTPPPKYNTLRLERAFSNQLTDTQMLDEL
Experimental: as §1, §2

T1 sequence (P13569 whole entry): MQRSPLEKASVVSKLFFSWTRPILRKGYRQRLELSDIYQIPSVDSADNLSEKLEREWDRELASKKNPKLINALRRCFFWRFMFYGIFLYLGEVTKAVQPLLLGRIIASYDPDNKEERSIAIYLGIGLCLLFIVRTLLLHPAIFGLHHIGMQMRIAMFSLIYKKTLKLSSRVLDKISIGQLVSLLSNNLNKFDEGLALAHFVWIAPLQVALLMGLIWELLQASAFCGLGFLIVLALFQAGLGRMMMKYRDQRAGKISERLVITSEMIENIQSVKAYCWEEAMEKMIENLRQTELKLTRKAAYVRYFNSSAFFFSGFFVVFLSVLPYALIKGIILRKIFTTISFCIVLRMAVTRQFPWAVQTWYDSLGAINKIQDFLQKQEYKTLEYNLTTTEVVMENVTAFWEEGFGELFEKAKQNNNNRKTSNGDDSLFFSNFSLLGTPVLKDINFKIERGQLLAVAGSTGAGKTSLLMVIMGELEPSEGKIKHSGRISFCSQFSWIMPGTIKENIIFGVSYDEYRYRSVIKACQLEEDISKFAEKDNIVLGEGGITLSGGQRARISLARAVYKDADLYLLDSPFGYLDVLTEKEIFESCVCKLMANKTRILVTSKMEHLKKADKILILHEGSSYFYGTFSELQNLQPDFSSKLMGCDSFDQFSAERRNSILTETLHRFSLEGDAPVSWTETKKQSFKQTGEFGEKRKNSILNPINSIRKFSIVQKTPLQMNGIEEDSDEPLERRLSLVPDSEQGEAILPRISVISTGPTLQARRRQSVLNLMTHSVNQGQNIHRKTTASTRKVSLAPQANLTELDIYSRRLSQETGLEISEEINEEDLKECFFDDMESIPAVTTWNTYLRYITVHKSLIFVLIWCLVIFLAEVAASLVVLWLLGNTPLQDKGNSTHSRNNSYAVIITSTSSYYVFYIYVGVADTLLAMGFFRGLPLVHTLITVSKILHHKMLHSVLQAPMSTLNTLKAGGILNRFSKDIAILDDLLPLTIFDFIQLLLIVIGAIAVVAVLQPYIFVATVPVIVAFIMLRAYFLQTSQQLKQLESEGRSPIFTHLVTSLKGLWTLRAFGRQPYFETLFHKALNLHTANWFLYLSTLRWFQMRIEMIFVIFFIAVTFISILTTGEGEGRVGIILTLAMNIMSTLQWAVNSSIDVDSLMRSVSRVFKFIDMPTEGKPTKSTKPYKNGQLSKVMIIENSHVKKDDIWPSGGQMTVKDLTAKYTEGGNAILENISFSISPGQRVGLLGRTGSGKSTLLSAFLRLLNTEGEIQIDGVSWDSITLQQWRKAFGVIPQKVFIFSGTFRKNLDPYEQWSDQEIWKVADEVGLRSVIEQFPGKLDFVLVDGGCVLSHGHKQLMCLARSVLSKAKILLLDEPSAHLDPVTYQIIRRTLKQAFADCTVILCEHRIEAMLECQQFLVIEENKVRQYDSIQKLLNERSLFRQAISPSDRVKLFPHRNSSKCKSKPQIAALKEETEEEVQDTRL

## COc1ccccc1C=NNC(=O)COc1ccc(Cl)cc1C [Ani9, 2-(4-chloro-2-methylphenoxy)-N-[(2-methoxyphenyl)methylideneamino]-acetamide]
Human wild-type CFTR
  effect on CFTR channel activity: no effect
ENaC
  effect on ENaC channel activity: no effect
